Reference: US20220324835A1 (Nurix Therapeutics, Inc., priority 2018, published 2022)

How the values were obtained:
Type in all cases: cell-based
[1] = test system: primary human total T-cells; assay: T-cell activation assessed by cell proliferation (Cell Trace Violet)
Method in brief: (§1)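 Primary human T-cells (>95% CD3+, negative selection from PBMC) were pre-incubated with inhibitor (e.g. 10, 1.11, 0.123 μM; DMSO <0.1%) for 1 h at 37 °C. They were then stimulated 48 h with plate-bound OKT3 (coated at 10 μg/mL), alone or with 5 μg/mL soluble anti-CD28. Results are fold change over uninhibited, identically stimulated cells.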

[2] = test system: primary human total T-cells; assay: T-cell activation assessed by cytokine secretion (GM-CSF, IFNγ, TNFα)
Method in brief: as §1

[3] = test system: primary human total T-cells; assay: T-cell activation assessed by CD69 expression
Method in brief: as §1

[4] = CD3/CD28 stimulation, CD4 T-cells, read-out: % CP (cell proliferation) (CD4)
[5] = CD3/CD28 stimulation, CD8 T-cells, read-out: % CP (cell proliferation) (CD8)
[6] = CD3 alone stimulation, CD8 T-cells, read-out: % CP (cell proliferation) (CD8)
[7] = CD3/CD28 stimulation, read-out: GM-CSF secretion
[8] = CD3/CD28 stimulation, read-out: IFNγ secretion
[9] = CD3/CD28 stimulation, read-out: TNFα secretion
[10] = CD3 alone stimulation, read-out: GM-CSF secretion
[11] = CD3 alone stimulation, read-out: IFNγ secretion
[12] = CD3 alone stimulation, read-out: TNFα secretion
[13] = CD3/CD28 stimulation, CD4 T-cells, read-out: % CD69+ (CD4)
[14] = CD3/CD28 stimulation, CD8 T-cells, read-out: % CD69+ (CD8)
[15] = CD3 alone stimulation, CD4 T-cells, read-out: % CD69+ (CD4)
[16] = CD3 alone stimulation, CD8 T-cells, read-out: % CD69+ (CD8)

SMILES	fold induction at 1.11 µM [1, 4]	fold induction at 10 µM [1, 4]	fold induction at 1.11 µM [1, 5]	fold induction at 10 µM [1, 5]	fold induction at 1.11 µM [1, 6]	fold induction at 10 µM [1, 6]	fold induction at 1.11 µM [2, 7]	fold induction at 1.11 µM [2, 8]	fold induction at 1.11 µM [2, 9]	fold induction at 10 µM [2, 7]	fold induction at 10 µM [2, 8]	fold induction at 10 µM [2, 9]	fold induction at 1.11 µM [2, 10]	fold induction at 1.11 µM [2, 11]	fold induction at 1.11 µM [2, 12]	fold induction at 10 µM [2, 10]	fold induction at 10 µM [2, 11]	fold induction at 10 µM [2, 12]	fold induction at 1.11 µM [3, 13]	fold induction at 10 µM [3, 13]	further results
C[C@H](c1cc2c(c(C(F)(F)F)c1)CN(c1cccc(C3(Cc4nncn4C)COC3)c1)C2=O)N1CC[C@H](F)C1 [Compound 413, 6-((R)-1-((S)-3-fluoropyrrolidin-1-yl)ethyl)-2-(3-(3-((4-methyl-4H-1,2,4-triazol-3-yl)methyl)oxetan-3-yl)phenyl)-4-(trifluoromethyl)isoindolin-1-one]	> 4	> 4	3.01 to 4	> 4	3.01 to 4	> 4	2.01 to 4	< 2	2.01 to 4	> 4	3.01 to 4	2.01 to 4	1.51 to 2	2.01 to 3	1.51 to 2	2.01 to 4	> 4	1.51 to 2	1.4 to 1.6	> 1.6	fold induction at 1.11 µM [3, 14]: 1.2 to 1.4; fold induction at 10 µM [3, 14]: 1.2 to 1.4; fold induction at 1.11 µM [3, 15]: 1.4 to 1.6; fold induction at 10 µM [3, 15]: > 1.6; fold induction at 1.11 µM [3, 16]: 1.2 to 1.4; fold induction at 10 µM [3, 16]: 1.4 to 1.6
Cn1cnnc1CC1(c2cccc(N3Cc4c(cc(CN5CC(F)C5)cc4C(F)(F)F)C3=O)c2)COC1 [Compound 415, 6-((3-fluoroazetidin-1-yl)methyl)-2-(3-(3-((4-methyl-4H-1,2,4-triazol-3-yl)methyl)oxetan-3-yl)phenyl)-4-(trifluoromethyl)isoindolin-1-one]	> 4	> 4	3.01 to 4	> 4	> 4	> 4	2.01 to 4	3.01 to 4	2.01 to 4	> 4	> 4	2.01 to 4	2.01 to 4	2.01 to 3	1.51 to 2	> 4	> 4	1.51 to 2	1.2 to 1.4	1.4 to 1.6	fold induction at 1.11 µM [3, 14]: 1.2 to 1.4; fold induction at 10 µM [3, 14]: 1.2 to 1.4; fold induction at 1.11 µM [3, 15]: > 1.6; fold induction at 10 µM [3, 15]: > 1.6; fold induction at 1.11 µM [3, 16]: 1.2 to 1.4; fold induction at 10 µM [3, 16]: 1.4 to 1.6
Cn1cnnc1CC1(c2cccc(N3Cc4c(cc(CN5CC[C@H](C#N)C5)cc4C(F)(F)F)C3=O)c2)COC1 [Compound 422, (S)-1-((2-(3-(3-((4-methyl-4H-1,2,4-triazol-3-yl)methyl)oxetan-3-yl)phenyl)-3-oxo-7-(trifluoromethyl)isoindolin-5-yl)methyl)pyrrolidine-3-carbonitrile]	> 4	> 4	2.01 to 3	3.01 to 4	3.01 to 4	> 4	2.01 to 4	3.01 to 4	2.01 to 4	> 4	> 4	2.01 to 4	2.01 to 4	< 2	≤ 1.5	2.01 to 4	3.01 to 4	1.51 to 2	1.2 to 1.4	1.4 to 1.6	fold induction at 1.11 µM [3, 14]: 1.2 to 1.4; fold induction at 10 µM [3, 14]: 1.2 to 1.4; fold induction at 1.11 µM [3, 15]: > 1.6; fold induction at 10 µM [3, 15]: > 1.6; fold induction at 1.11 µM [3, 16]: 1.2 to 1.4; fold induction at 10 µM [3, 16]: 1.4 to 1.6
Cn1cnnc1C(F)(F)[C@](C)(F)c1cccc(N2Cc3c(cc(C(=O)N4CC[C@H](O)C4)cc3C(F)(F)F)C2=O)c1 [Compound 438, 6-((S)-3-hydroxypyrrolidine-1-carbonyl)-2-(3-((R)-1,1,2-trifluoro-1-(4-methyl-4H-1,2,4-triazol-3-yl)propan-2-yl)phenyl)-4-(trifluoromethyl)isoindolin-1-one]	3.01 to 4	> 4	< 2	3.01 to 4	< 2	> 4	1.51 to 2	< 2	≤ 1.5	2.01 to 4	2.01 to 3	2.01 to 4	≤ 1.5	< 2	2.01 to 4	2.01 to 4	2.01 to 3	1.51 to 2	1.2 to 1.4	1.4 to 1.6	fold induction at 1.11 µM [3, 14]: ≤ 1.2; fold induction at 10 µM [3, 14]: 1.2 to 1.4; fold induction at 1.11 µM [3, 15]: 1.2 to 1.4; fold induction at 10 µM [3, 15]: > 1.6; fold induction at 1.11 µM [3, 16]: ≤ 1.2; fold induction at 10 µM [3, 16]: 1.2 to 1.4
Cn1cnnc1C(F)(F)[C@](C)(F)c1cccc(N2Cc3c(cc(CN4CC[C@@H](F)C4)cc3C(F)(F)F)C2=O)c1 [Compound 450]	> 4	> 4	2.01 to 3	> 4	> 4	> 4	2.01 to 4	2.01 to 3	2.01 to 4	> 4	> 4	2.01 to 4	1.51 to 2	< 2	1.51 to 2	2.01 to 4	< 2	1.51 to 2	1.2 to 1.4	1.4 to 1.6	fold induction at 1.11 µM [3, 14]: 1.2 to 1.4; fold induction at 10 µM [3, 14]: 1.2 to 1.4; fold induction at 1.11 µM [3, 15]: 1.4 to 1.6; fold induction at 10 µM [3, 15]: > 1.6; fold induction at 1.11 µM [3, 16]: 1.2 to 1.4; fold induction at 10 µM [3, 16]: 1.4 to 1.6
COC1CN(Cc2cc3c(c(C(F)(F)F)c2)CN(c2cccc([C@@](C)(F)C(F)(F)c4nncn4C)c2)C3=O)C1 [Compound 452, (R)-6-((3-methoxyazetidin-1-yl)methyl)-2-(3-(1,1,2-trifluoro-1-(4-methyl-4H-1,2,4-triazol-3-yl)propan-2-yl)phenyl)-4-(trifluoromethyl)isoindolin-1-one]	> 4	> 4	3.01 to 4	> 4	3.01 to 4	> 4	2.01 to 4	< 2	1.51 to 2	2.01 to 4	2.01 to 3	2.01 to 4	1.51 to 2	3.01 to 4	≤ 1.5	2.01 to 4	3.01 to 4	1.51 to 2	1.2 to 1.4	1.4 to 1.6	fold induction at 1.11 µM [3, 14]: 1.2 to 1.4; fold induction at 10 µM [3, 14]: 1.2 to 1.4; fold induction at 1.11 µM [3, 15]: 1.4 to 1.6; fold induction at 10 µM [3, 15]: > 1.6; fold induction at 1.11 µM [3, 16]: 1.2 to 1.4; fold induction at 10 µM [3, 16]: 1.4 to 1.6
